# Measured values from patent publication US8618082B2, “Lupeol anti-tumor agent and uses thereof” (Wisconsin Alumni Research Foundation, priority 2004, dated 2013).
# What was measured:
# [1] = system: NFκB-DNA binding activity; assay: NFκB-DNA binding by electrophoretic mobility shift assay (EMSA); type: in vivo; conditions: prior application of Lupeol to mouse skin
# Description: (b) At different times after treatment, the animals were sacrificed, nuclear lysates were prepared, and DNA binding was determined by […] as described under ‘Materials and Methods’. C1, C2, and C3 refer to inter experimental controls, where C1 represents biotin-EBNA (epistein barr virus nuclear antigen) control DNA, C2 represents Biotin-EBNA control DNA and EBNA extract and C3 represents Biotin-EBNA control DNA and EBNA extract plus 200 fold molar excess of EBNA DNA.
# (§1) Epidermis from the whole skin was separated as described earlier (Katiyar et al., 1999) and was homogenized in ice-cold lysis buffer [50 mM Tris-HCl, 150 mM NaCl, 1 mM EGTA, 1 mM EDTA, 20 mM NaF, 100 mM Na3VO4, 0.5% NP-40, 1% Triton X-100, 1 mM PMSF (pH 7.4)] with freshly added protease inhibitor cocktail, Protease Inhibitor Cocktail Set III (Calbiochem, La Jolla, Calif., USA). […] The protein content in the lysates was measured by DC BioRad assay (BioRad Laboratories, Hercules, Calif.) as per the manufacturer's protocol.
# EMSA for NFκB was performed using Lightshift™ chemiluminescent EMSA kit (Pierce, Rockford, Ill., USA) by following the manufacturer's protocol. […] The biotin end-labeled DNA was detected using streptavidin-horseradish peroxidase conjugate and a chemiluminescent substrate. […]
# IκBα protein = assay: TPA-induced phosphorylation and degradation of IκBα (western blot); type: in vivo, mouse
# Description: FIG. 6. Inhibitory effect of Lupeol on TPA-induced activation of IKKα, and phosphorylation and degradation of IκBα in CD-1 mice: At different times after treatment, the animals were sacrificed, epidermal cytosolic was prepared, and protein expression was determined. Equal loading was confirmed by stripping the immunoblot and reprobing it for β-actin. The immunoblots shown here are representative of three independent experiments with similar results. The values above each lane indicate relative density of the band normalized to β-actin.
# The animals were shaved on the dorsal side of the skin, divided into four groups and treated topically on the shaved area with either 0.4 ml vehicle (acetone), or TPA (3.2 nmol/0.4 ml acetone/animal, v/v), or Lupeol (1 or 2 mg/0.2 ml acetone/animal, w/v) followed 30 min later with TPA (3.2 nmol/0.2 ml acetone/animal). […]
# as §1, with “protocol. […]” for “protocol.”
compound,measurement,setting,value
"C=C(C)[C@@H]1CC[C@]2(C)CC[C@]3(C)[C@H](CC[C@@H]4[C@@]5(C)CC[C@H](O)C(C)(C)[C@@H]5CC[C@]43C)[C@@H]12 [Lupeol, Lup-20(29)-en-3β-ol]",TPA-induced epidermal NFκB DNA binding activity,[1],significantly inhibited
same,TPA-induced degradation of IκBα protein,IκBα protein; topical Lupeol 30 min prior to TPA,significant inhibition
same,TPA-induced phosphorylation of IκB protein (Ser32),IκBα protein; topical Lupeol prior to TPA,dose dependent inhibition
